Reference: ChEMBL document CHEMBL2375248, “C1 and N5 derivatives of cerpegin: synthesis of a new series based on structure-activity relationships to optimize their inhibitory effect on 20S proteasome” (Bioorg Med Chem Lett, 2013)
Calls of active or inactive are those of the source. The rule behind the calls is not given here.

Key:
[1] = Inhibition of trypsin-like activity of 20S proteasome in rabbit erythrocytes using Boc-LRR-AMC as substrate preincubated for 15 mins measured after 45 mins by fluorescence assay; assay type: cell-based, Oryctolagus cuniculus
[2] = Inhibition of caspase-like activity of 20S proteasome in rabbit erythrocytes using Z-LLE-betaNA as substrate preincubated for 15 mins measured after 45 mins by fluorescence assay; assay type: cell-based, Oryctolagus cuniculus
[3] = Inhibition of chymotrypsin-like activity of 20S proteasome in rabbit erythrocytes using Suc-LLVY-AMC as substrate preincubated for 15 mins measured after 45 mins by fluorescence assay; assay type: cell-based, Oryctolagus cuniculus
[4] = biological target: Cathepsin B (Homo sapiens) (UniProt P07858); test: Inhibition of cathepsin B in human hepatocytes using Z-RR-AMC as substrate by fluorescence assay; assay type: cell-based; conditions: Hepatocyte
[5] = species on record: Oryctolagus cuniculus; test: Inhibition of caspase-like activity of 20S proteasome in rabbit erythrocytes using Z-LLE-betaNA as substrate at 100 uM preincubated for 15 mins measured after 45 mins by fluorescence assay relative to control
[6] = biological target: T1, Calpain-1 catalytic subunit (Homo sapiens, UniProt P07384); test: Inhibition of calpain 1 in human erythrocytes using Suc-LLVY-AMC as substrate by fluorescence assay; assay type: cell-based
T1 sequence (P07384 whole entry): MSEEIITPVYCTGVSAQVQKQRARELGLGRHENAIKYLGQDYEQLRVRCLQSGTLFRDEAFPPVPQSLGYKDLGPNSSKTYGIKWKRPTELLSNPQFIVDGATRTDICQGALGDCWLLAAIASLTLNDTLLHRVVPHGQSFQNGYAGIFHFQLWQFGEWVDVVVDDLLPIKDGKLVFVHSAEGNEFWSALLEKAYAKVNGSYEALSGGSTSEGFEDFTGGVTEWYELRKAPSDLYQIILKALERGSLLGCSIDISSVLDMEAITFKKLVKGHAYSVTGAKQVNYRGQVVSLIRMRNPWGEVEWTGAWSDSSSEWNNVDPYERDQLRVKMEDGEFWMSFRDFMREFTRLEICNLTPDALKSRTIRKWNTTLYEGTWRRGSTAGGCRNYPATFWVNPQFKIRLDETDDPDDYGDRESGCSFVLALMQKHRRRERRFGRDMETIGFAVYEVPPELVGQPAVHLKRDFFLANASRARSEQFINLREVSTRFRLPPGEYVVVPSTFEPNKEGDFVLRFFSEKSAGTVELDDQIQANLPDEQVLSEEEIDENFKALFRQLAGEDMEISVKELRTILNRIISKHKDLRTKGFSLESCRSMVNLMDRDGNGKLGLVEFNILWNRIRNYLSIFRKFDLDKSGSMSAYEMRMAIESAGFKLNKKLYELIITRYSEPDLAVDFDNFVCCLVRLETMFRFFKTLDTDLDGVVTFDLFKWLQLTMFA

[7] = species on record: Oryctolagus cuniculus; test: Inhibition of chymotrypsin-like activity of 20S proteasome in rabbit erythrocytes using Suc-LLVY-AMC as substrate at 100 uM preincubated for 15 mins measured after 45 mins by fluorescence assay relative to control; assay type: cell-based

Row | SMILES | IC50 [1] | IC50 ([2]; read-out: IC50) [µM] | IC50 [3] | inhibition [4] | inhibition [5] [%] | IC50 [2] | IC50 [6] [µM] | IC50 ([3]; read-out: IC50) [µM] | IC50 ([1]; read-out: IC50) [nM] | inhibition [7] [%]
1 | CCN(CC)CC(O)Cn1ccc2c(c1=O)C(=O)OC2(C)CCc1ccccc1 (mixture of isomers) | Not Active | 2.5 | Not Active | inactive | – | – | – | – | – | –
2 | CC1(C)OC(=O)c2c1ccn(-c1ccc(S(=O)(=O)Nc3ccccn3)cc1)c2=O | Not Active | – | Not Active | inactive | 64 | – | – | – | – | –
3 | CC(C)CC1(C)OC(=O)c2c1ccn(CC(O)c1ccccc1)c2=O (configuration not stated) | Not Active | 4.8 | Not Active | inactive | – | – | – | – | – | –
4 | CC(=O)NS(=O)(=O)c1ccc(-n2ccc3c(c2=O)C(=O)OC3(C)C)cc1 | Not Active | 5.7 | Not Active | inactive | – | – | – | – | – | –
5 | CC1(C)OC(=O)c2c1ccn(-c1ccc(S(=O)(=O)Nc3ncccn3)cc1)c2=O | Not Active | – | Not Active | inactive | 51 | – | – | – | – | –
6 | CC1(C)OC(=O)c2c1ccn(-c1ccc(S(N)(=O)=O)cc1)c2=O | Not Active | 6.1 | Not Active | inactive | – | – | – | – | – | –
7 | Cn1ccc2c(c1=O)C(=O)OC2(C)c1ccccc1 (racemic) | Not Active | 36 | Not Active | inactive | – | – | – | – | – | –
8 | O=C1OC2(CCCCC2)c2ccn(CC(O)CN3CCOCC3)c(=O)c21 (configuration not stated) | Not Active | – | Not Active | inactive | 30.7 | – | – | – | – | –
9 | CC(C)CC1(C)OC(=O)c2c1ccn(CCc1ccc(Cl)cc1)c2=O (racemic) | Not Active | 12.7 | Not Active | inactive | – | – | – | – | – | –
10 | CC1(CCc2ccccc2)OC(=O)c2c1ccn(-c1ccc(S(N)(=O)=O)cc1)c2=O (racemic) | Not Active | 2.8 | Not Active | inactive | – | – | – | – | – | –
11 | O=C1OC2(CCCCC2)c2ccn(CCCN3CCOCC3)c(=O)c21 | Not Active | 46.9 | Not Active | inactive | – | – | – | – | – | –
12 | CC1(C)CC2(CCO1)OC(=O)c1c2ccn(CCCN2CCOCC2)c1=O (configuration not stated) | Not Active | 54.7 | Not Active | inactive | – | – | – | – | – | –
13 | CCC1(C)OC(=O)c2c1ccn(-c1ccc(S(N)(=O)=O)cc1)c2=O (racemic) | Not Active | 4.9 | Not Active | inactive | – | – | – | – | – | –
14 | CC(C)CC1(C)OC(=O)c2c1ccn(CCCN1CCOCC1)c2=O (racemic) | Not Active | – | Not Active | inactive | 31.8 | – | – | – | – | –
15 | NS(=O)(=O)c1ccc(-n2ccc3c(c2=O)C(=O)OC32CCCCC2)cc1 | Not Active | 6.6 | Not Active | inactive | – | – | – | – | – | –
16 | CC1(CCc2ccccc2)OC(=O)c2c1ccn(CCCN1CCOCC1)c2=O (racemic) | Not Active | 19.6 | Not Active | inactive | – | – | – | – | – | –
17 | CC1(C)OC(=O)c2c1ccn(-c1ccc(S(=O)(=O)NC(=O)c3ccccc3)cc1)c2=O | Not Active | 4.5 | Not Active | inactive | – | – | – | – | – | –

Row | SMILES | IC50 [1] | IC50 ([2]; read-out: IC50) [µM] | IC50 [3] | inhibition [4] | inhibition [5] [%] | IC50 [2] | IC50 [6] [µM] | IC50 ([3]; read-out: IC50) [µM] | IC50 ([1]; read-out: IC50) [nM] | inhibition [7] [%]
18 | CC1(Cc2ccccc2)OC(=O)c2c1ccn(-c1ccc(S(N)(=O)=O)cc1)c2=O (racemic) | Not Active | 3.6 | Not Active | inactive | – | – | – | – | – | –
19 | O=C1OC2(CCCCC2)c2ccn(CC(O)c3ccccc3)c(=O)c21 (configuration not stated) | Not Active | 11.9 | Not Active | inactive | – | – | – | – | – | –
20 | CC1(C)OC(=O)c2c1ccn(-c1ccc(S(=O)(=O)Nc3ccnn3-c3ccccc3)cc1)c2=O | Not Active | – | Not Active | inactive | 28 | – | – | – | – | –
21 | CCN(CC)CC(O)Cn1ccc2c(c1=O)C(=O)OC21CCCCC1 (configuration not stated) | Not Active | 6.7 | Not Active | inactive | – | – | – | – | – | –
22 | CCN(CC)CC(O)Cn1ccc2c(c1=O)C(=O)OC21CCOC(C)(C)C1 (configuration not stated) | Not Active | 4.1 | Not Active | inactive | – | – | – | – | – | –
23 | Cc1cc(-n2ccc3c(c2=O)C(=O)OC32CCCCC2)n(-c2ccccc2)n1 | Not Active | – | Not Active | inactive | – | Not Active | – | – | – | –
24 | Cc1noc(NS(=O)(=O)c2ccc(-n3ccc4c(c3=O)C(=O)OC4(C)C)cc2)c1C | Not Active | – | Not Active | inactive | 51 | – | – | – | – | –
25 | CCN(CC)CC(O)Cn1ccc2c(c1=O)C(=O)OC2(C)c1ccccc1 (mixture of isomers) | Not Active | 4.4 | Not Active | inactive | – | – | – | – | – | –
26 | CC1(Cc2ccccc2)OC(=O)c2c1ccn(CCc1ccc(Cl)cc1)c2=O (racemic) | Not Active | 7 | – | inactive | – | – | 29.6 | 22.5 | – | –
27 | C[C@@]12OC(=O)[C@]1([C@@H](O)[C@@H]1C=CCCC1)NC(=O)[C@@H]2CCCl [MARIZOMIB] | – | 0.46 | – | – | – | – | – | 0.0026 | 21 | –
28 | CC1(C)OC(=O)c2c1ccn(-c1ccc(S(=O)(=O)Nc3nccs3)cc1)c2=O | Not Active | – | Not Active | inactive | 22 | – | – | – | – | –
29 | NC(=S)Nn1ccc2c(c1=O)C(=O)OC21CCCCC1 | Not Active | – | – | inactive | – | Not Active | – | – | – | 23.8
30 | CC1(c2ccccc2)OC(=O)c2c1ccn(CCCN1CCOCC1)c2=O (racemic) | Not Active | 56.4 | Not Active | inactive | – | – | – | – | – | –
31 | CC(C)CC1(C)OC(=O)c2c1ccn(-c1ccc(S(N)(=O)=O)cc1)c2=O (racemic) | Not Active | 4.6 | Not Active | inactive | – | – | – | – | – | –
32 | O=C1OC2(CCCCC2)c2ccn(CC(O)CO)c(=O)c21 (configuration not stated) | Not Active | 8.1 | Not Active | inactive | – | – | – | – | – | –
33 | CC1(C)OC(=O)c2c1ccn(-c1ccc(S(=O)(=O)NC(=N)N)cc1)c2=O | Not Active | 5.9 | Not Active | inactive | – | – | – | – | – | –
